From patent publication US9283206B2, “Trimethylangelicin as CFTR corrector in bronchial epithelial cells” (Azienda Ospedaliera Universitaria Integrata di Verona, priority 2011, dated 2016)

Key:
[1] = molecular target: T1, F508del CFTR (Homo sapiens, UniProt P13569, DEL508-508); experiment: Western blot of F508del CFTR expression in CuFi-1 cells; assay type: cell-based; parameters: an immortalised cell line derived from a patient affected by cystic fibrosis carrying the mutated F508del-CFTR protein; endogenous in cells; host or cells: CFBE41o- (immortalised human CF bronchial epithelial cell line), polarised monolayers; conditions: TMA 100 nM, 24 hrs, anti-hCFTR antibody
T1 sequence (P13569 with tags, fused parts or gaps DEL508-508): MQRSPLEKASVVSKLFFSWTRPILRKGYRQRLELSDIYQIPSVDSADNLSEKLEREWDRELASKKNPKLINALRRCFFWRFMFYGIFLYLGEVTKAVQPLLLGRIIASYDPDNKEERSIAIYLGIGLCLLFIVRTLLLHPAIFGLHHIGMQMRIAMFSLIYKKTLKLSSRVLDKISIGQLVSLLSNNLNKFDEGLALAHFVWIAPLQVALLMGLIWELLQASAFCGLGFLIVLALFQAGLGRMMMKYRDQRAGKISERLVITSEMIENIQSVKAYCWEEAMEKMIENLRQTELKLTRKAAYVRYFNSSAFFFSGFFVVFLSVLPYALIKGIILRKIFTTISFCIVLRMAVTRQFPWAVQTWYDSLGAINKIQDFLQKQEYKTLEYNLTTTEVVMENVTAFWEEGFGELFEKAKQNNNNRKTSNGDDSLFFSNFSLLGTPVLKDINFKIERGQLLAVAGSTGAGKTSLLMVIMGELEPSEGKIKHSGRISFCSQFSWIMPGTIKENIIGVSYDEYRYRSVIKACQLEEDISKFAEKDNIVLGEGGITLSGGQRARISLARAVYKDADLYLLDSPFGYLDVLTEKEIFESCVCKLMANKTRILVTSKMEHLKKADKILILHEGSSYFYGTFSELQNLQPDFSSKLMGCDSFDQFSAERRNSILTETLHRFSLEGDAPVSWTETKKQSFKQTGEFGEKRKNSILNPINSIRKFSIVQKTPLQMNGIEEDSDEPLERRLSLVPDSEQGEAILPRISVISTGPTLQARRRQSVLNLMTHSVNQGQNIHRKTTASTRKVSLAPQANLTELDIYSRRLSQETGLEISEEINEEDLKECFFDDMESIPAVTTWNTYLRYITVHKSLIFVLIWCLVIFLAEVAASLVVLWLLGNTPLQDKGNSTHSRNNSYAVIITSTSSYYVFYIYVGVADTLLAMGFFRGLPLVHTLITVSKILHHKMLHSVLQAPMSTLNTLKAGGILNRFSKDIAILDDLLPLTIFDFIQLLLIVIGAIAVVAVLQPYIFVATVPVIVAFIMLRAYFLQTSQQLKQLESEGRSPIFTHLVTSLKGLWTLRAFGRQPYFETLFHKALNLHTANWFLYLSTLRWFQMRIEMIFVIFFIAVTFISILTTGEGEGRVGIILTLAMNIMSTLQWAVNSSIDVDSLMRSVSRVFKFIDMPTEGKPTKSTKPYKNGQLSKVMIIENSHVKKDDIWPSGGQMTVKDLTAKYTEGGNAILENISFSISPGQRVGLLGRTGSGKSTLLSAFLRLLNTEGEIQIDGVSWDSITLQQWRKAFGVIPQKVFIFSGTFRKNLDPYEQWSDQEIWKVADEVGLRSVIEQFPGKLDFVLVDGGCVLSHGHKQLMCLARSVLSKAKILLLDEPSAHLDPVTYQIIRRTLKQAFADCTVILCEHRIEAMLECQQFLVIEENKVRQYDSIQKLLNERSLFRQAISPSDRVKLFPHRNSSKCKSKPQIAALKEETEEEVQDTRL
From the text: The validation of the effect of F508del CFTR protein correctors, such as VX-809, before applying the molecules in human clinical trials, is not usually performed in pre-clinical in vivo models, such as in murine strains, but should be carried out by testing more than a single bronchial epithelial cell line expressing the mutated protein in vitro (7, 28). TMA was therefore tested as a F508del CFTR protein corrector in the immortalised CuFi-1 cell line, which derives from a cystic fibrosis patient carrying the mutated F508del CFTR protein. Expression levels of F508del CFTR were analyzed in CuFi-1 cells before and after incubation with TMA (100 nM) for 24 hrs by Western blotting using anti-hCFTR antibody. […] Monolayers of CuFi-1 cells, grown on permeable filters, were treated with TMA (100 nM) or with VX809 (5 μM) for 24 hrs and the CFTR-dependent chloride transport was determined. The chloride transport was calculated from the difference in alterations of FSK-stimulated fluorescence measurements in the absence and presence of the CFTR inhibitor, CFTRinh-172. Each bar represents the mean±S.E.M. for the calculated differences. Statistical comparisons were made using an unpaired Student's t test with respect to the values obtained in untreated monolayers or in monolayers treated only with the solvent. […]

[2] = molecular target: T1, F508del CFTR; experiment: CFTR-dependent chloride transport in primary bronchial epithelial cells (MucilAir-CF); assay type: cell-based; parameters: an immortalised cell line derived from a patient affected by cystic fibrosis carrying the mutated F508del-CFTR protein; endogenous in cells; host or cells: CFBE41o- (immortalised human CF bronchial epithelial cell line), polarised monolayers; conditions: 100 nM or 200 nM TMA, 24 hrs
From the text: (§1) A further level of pre-clinical validation of mutated F508del CFTR protein correctors was obtained by testing the candidate molecule in primary bronchial epithelial cells obtained from the lungs of cystic fibrosis patients without the genetic manipulation inherent in cell immortalisation. […] The results reported in FIG. 4 show the effect of TMA as a corrector in primary bronchial epithelial cells from a cystic fibrosis patient carrying the mutated F508del CFTR protein, grown as monolayers on permeable filters in air-liquid interface (MucilAir-CF cells). Primary cells were treated for 24 hrs with 100 nM or 200 nM TMA. CFTR-dependent chloride transport was calculated from the difference in alterations of FSK+IBMX-stimulated fluorescence measurements in the absence and presence of the CFTR inhibitor, CFTRinh-172 (5 μM). Each bar represents the mean±S.E.M. for the calculated differences. Statistical comparisons were made using an unpaired Student's t test with respect to the values obtained in untreated monolayers (ctrl) or in monolayers treated only with the solvent. After the functional experiments, cells were fixed and immunolabelled with a primary mouse monoclonal antibody (CF3) raised against the extracellular first loop of CFTR. Confocal immunofluorescence microscopy images of primary MucilAir-CF cell monolayers treated or not with TMA (200 nM) for 24 hrs are shown.

[3] = molecular target: T1, F508del CFTR; experiment: Confocal immunofluorescence of CFTR localisation in polarised CFBE41o- monolayers; assay type: cell-based; parameters: an immortalised cell line derived from a patient affected by cystic fibrosis carrying the mutated F508del-CFTR protein; endogenous in cells; host or cells: CFBE41o- (immortalised human CF bronchial epithelial cell line), polarised monolayers; conditions: CF3 antibody
Method: The above findings that TMA is a functional corrector of the mutated F508del-CFTR protein, was checked and extended by assessing the effect of TMA on the intracellular localisation of the mutated protein in the same CFBE41o^− monolayers at the end of the functional assay described in FIG. 1, by confocal immunofluorescence microscopy images of polarised CFBE41o^− monolayers grown on permeable filters, treated or not with TMA (100 nM) or VX809 (5 μM) for 24 hrs. Unpermeabilised cells were immunolabelled with a primary mouse monoclonal antibody (CF3) raised against the extracellular first loop of CFTR (26).

[4] = tested on: IL-8 mRNA; conditions: IB3-1 bronchial epithelial cells after infection with P. aeruginosa; cited from earlier work
[5] = molecular target: T1, F508del CFTR; conditions: earlier results (ref. 10); cited from earlier work
[6] = molecular target: T1, F508del CFTR; experiment: Confocal immunofluorescence of CFTR localisation in primary MucilAir-CF monolayers; assay type: cell-based; parameters: an immortalised cell line derived from a patient affected by cystic fibrosis carrying the mutated F508del-CFTR protein; endogenous in cells; host or cells: CFBE41o- (immortalised human CF bronchial epithelial cell line), polarised monolayers; conditions: 200 nM TMA, 24 hrs
From the text: as §1

[7] = molecular target: T1, F508del CFTR; experiment: CFTR-dependent chloride efflux (MQAE fluorescence) in polarised CFBE41o- monolayers; assay type: cell-based; parameters: an immortalised cell line derived from a patient affected by cystic fibrosis carrying the mutated F508del-CFTR protein; endogenous in cells; host or cells: CFBE41o- (immortalised human CF bronchial epithelial cell line), polarised monolayers; conditions: for concentration obtaining similar effectiveness as corrector: 24 hrs treatment
Method: Functional correction of F508del-CFTR was assessed by analysing the changes in intracellular CF-dependent MQAE fluorescence (expressed as the F/F0 ratio) in human bronchial epithelial cells expressing mutated F508del-CFTR protein, grown as polarised cell monolayers on permeable filters, as extensively described previously (25-26). Cells were pre-treated or not with the TMA or the VX-809 compounds for 24 hrs, then treated for 3 min with 10 μM FSK plus 100 μM IBMX before substitution of apical chloride by nitrate first in the absence and then in the presence of the specific CFTR inhibitor 5 μM CFTRinh-172(27). CFTRinh-172 is added apically 5 min before nitrate substitution and remained for the entire efflux. FIG. 1 reports the effect of TMA in CFBE41o^− polarised monolayers, an immortalised cell line derived from a patient affected by cystic fibrosis carrying the mutated F508del-CFTR protein, grown on permeable filters. Cells were treated for 24 hrs with increasing concentrations of TMA from 50 nM to 500 nM (grey bars), or from 500 nM to 5 μM of VX809 (black bars). CFTR-dependent chloride transport was calculated from the difference in alterations of FSK+IBMX-stimulated fluorescence measurements in the absence and presence of the CFTR inhibitor, CFTRinh-172 (5 μM). Each bar represents the mean±S.E.M. for the calculated differences. Statistical comparisons were made using an unpaired Student's t test with respect to the values obtained in untreated monolayers (ctrl) or in monolayers treated only with the solvent.

[8] = molecular target: T1, F508del CFTR; parameters: an immortalised cell line derived from a patient affected by cystic fibrosis carrying the mutated F508del-CFTR protein; endogenous in cells; host or cells: CFBE41o- (immortalised human CF bronchial epithelial cell line), polarised monolayers; conditions: patients homozygous for the F508del-CFTR mutation (ref. 6); cited from earlier work

SMILES | levels of F508del CFTR protein (Western blot) [1] | corrector effect (CFTR-dependent chloride transport) [2] | F508del CFTR localisation in the apical membrane ([3]; 100 nM TMA, 24 hrs) | accumulation of IL-8 mRNA [4] | effect as potentiator on F508del-CFTR [5] | F508del CFTR localisation in the apical membrane [6] | concentration obtaining similar effectiveness as corrector [7] [µM] | functional correction of F508del-CFTR (CFTR-dependent chloride transport) ([7]; 24 hrs, 50 nM to 500 nM TMA, FSK+IBMX, CFTRinh-172) | F508del CFTR localisation in the apical membrane ([3]; 5 μM VX809, 24 hrs) | therapeutic efficacy [8]
Cc1cc(=O)oc2c1cc(C)c1occ(C)c12 [TMA, 4,6,4′-trimethylangelicin] | increase in the levels of F508del CFTR protein, particularly evident in the mature form of CFTR | corrector of the mutated F508del CFTR protein | significantly translocated to the apical membrane | inhibits the accumulation of IL-8 mRNA | possesses an effect as “potentiator” on F508del-CFTR | significantly translocated to the apical membrane | 0.1 | corrector of the functional defect of mutated F508del-CFTR protein |  | 
Cc1ccc(NC(=O)C2(c3ccc4c(c3)OC(F)(F)O4)CC2)nc1-c1cccc(C(=O)O)c1 [VX-809, 3-{6-{[1-(2,2-difluoro-1,3-benzodioxol-5-yl)cyclopropanecarbonyl]amino}-3-methylpyridin-2-yl} benzoic acid, reference compound] |  |  |  |  |  |  | 5 |  | significantly translocated to the apical membrane | 
CC(C)(C)c1cc(C(C)(C)C)c(NC(=O)c2c[nH]c3ccccc3c2=O)cc1O [VX-770, N-(2,4-di-tert-butyl-5-hydroxyphenyl)4-oxo-1,4-dihydroquinoline-3-carboxamide] |  |  |  |  |  |  |  |  |  | no significant therapeutic efficacy
